In PubChem BioAssay (NCI):
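Values below derive from 48-hour exposures of cells grown in 96-well plates, with endpoints linearly interpolated between the two concentrations bracketing the appropriate inhibition level. Abbreviation: GI50, concentration required for 50% inhibition of growth. TGI: concentration producing complete growth inhibition.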

What was measured:
Assay in all cases: DTP human tumour cell line panel, 48 h
LOX IMVI melanoma = system: LOX IMVI melanoma
SF-268 CNS = system: SF-268 CNS
K-562 leukemia = system: K-562 leukemia
A549 NSCLC = system: A549 NSCLC
COLO 205 colon = system: COLO 205 colon
A498 renal = system: A498 renal
SF-539 CNS = system: SF-539 CNS
SR leukemia = system: SR leukemia
MDA-MB-435 = system: MDA-MB-435
UO-31 renal = system: UO-31 renal
PC-3 prostate = system: PC-3 prostate
T-47D breast = system: T-47D breast
SW-620 colon = system: SW-620 colon
HCT-116 colon = system: HCT-116 colon
MALME-3M melanoma = system: MALME-3M melanoma
ACHN renal = system: ACHN renal
HOP-62 NSCLC = system: HOP-62 NSCLC
SN12C renal = system: SN12C renal
IGROV1 ovarian = system: IGROV1 ovarian
MCF7 breast = system: MCF7 breast
HOP-92 NSCLC = system: HOP-92 NSCLC
OVCAR-8 ovarian = system: OVCAR-8 ovarian
RPMI-8226 leukemia = system: RPMI-8226 leukemia
MOLT-4 leukemia = system: MOLT-4 leukemia
U251 CNS = system: U251 CNS
SNB-19 CNS = system: SNB-19 CNS
MDA-MB-231 breast = system: MDA-MB-231 breast
CAKI-1 renal = system: CAKI-1 renal
DU-145 prostate = system: DU-145 prostate
TK-10 renal = system: TK-10 renal
UACC-257 melanoma = system: UACC-257 melanoma
NCI-H23 lung = system: NCI-H23 lung
HS 578T breast = system: HS 578T breast
EKVX NSCLC = system: EKVX NSCLC
M14 melanoma = system: M14 melanoma
BT-549 breast = system: BT-549 breast
KM12 colon = system: KM12 colon
OVCAR-4 ovarian = system: OVCAR-4 ovarian
NCI-H522 lung = system: NCI-H522 lung
NCI-H226 lung = system: NCI-H226 lung
UACC-62 melanoma = system: UACC-62 melanoma
NCI/ADR-RES ovarian = system: NCI/ADR-RES ovarian
HCC-2998 colon = system: HCC-2998 colon
SF-295 CNS = system: SF-295 CNS
OVCAR-3 ovarian = system: OVCAR-3 ovarian
OVCAR-5 ovarian = system: OVCAR-5 ovarian
HL-60(TB) leukemia = system: HL-60(TB) leukemia
HCT-15 colon = system: HCT-15 colon
SNB-75 CNS = system: SNB-75 CNS
SK-MEL-5 melanoma = system: SK-MEL-5 melanoma
RXF 393 renal = system: RXF 393 renal
NCI-H460 lung = system: NCI-H460 lung
SK-MEL-2 melanoma = system: SK-MEL-2 melanoma
SK-OV-3 ovarian = system: SK-OV-3 ovarian
CCRF-CEM leukemia = system: CCRF-CEM leukemia
SK-MEL-28 melanoma = system: SK-MEL-28 melanoma
HT29 colon = system: HT29 colon
786-0 renal = system: 786-0 renal

## Cn1cc(-c2nn3cc(-c4ccncc4)nc3s2)c2cc(Cl)ccc21
LOX IMVI melanoma
  GI50: 2640 nM
  TGI: 9260 nM
SF-268 CNS
  GI50: 6320 nM
  TGI: 24400 nM
K-562 leukemia
  GI50: 2150 nM
  TGI: 5300 nM
A549 NSCLC
  GI50: 11200 nM
  TGI: 51700 nM
COLO 205 colon
  GI50: 3390 nM
  TGI: 9200 nM
A498 renal
  GI50: 9380 nM
  TGI: 23700 nM
SF-539 CNS
  GI50: 4670 nM
  TGI: 10200 nM
SR leukemia
  GI50: 1690 nM
  TGI: 4610 nM
MDA-MB-435
  GI50: 2840 nM
  TGI: 8700 nM
UO-31 renal
  GI50: 4030 nM
  TGI: 22600 nM
PC-3 prostate
  GI50: 2480 nM
  TGI: 7820 nM
T-47D breast
  GI50: 3300 nM
  TGI: 18600 nM
SW-620 colon
  GI50: 1890 nM
  TGI: 4270 nM
HCT-116 colon
  GI50: 1760 nM
  TGI: 3300 nM
MALME-3M melanoma
  GI50: 3160 nM
  TGI: 18300 nM
ACHN renal
  GI50: 4780 nM
  TGI: 25300 nM
HOP-62 NSCLC
  GI50: 4400 nM
  TGI: > 27800 nM
SN12C renal
  GI50: 3720 nM
  TGI: 11200 nM
IGROV1 ovarian
  GI50: 2120 nM
  TGI: 17200 nM
MCF7 breast
  GI50: 1230 nM
  TGI: 3340 nM
HOP-92 NSCLC
  GI50: 1610 nM
  TGI: 5300 nM
OVCAR-8 ovarian
  GI50: 2360 nM
  TGI: 7700 nM
RPMI-8226 leukemia
  GI50: 2240 nM
  TGI: 6240 nM
MOLT-4 leukemia
  GI50: 2100 nM
  TGI: 5230 nM
U251 CNS
  GI50: 9150 nM
  TGI: 45400 nM
SNB-19 CNS
  GI50: 7980 nM
  TGI: 32700 nM
MDA-MB-231 breast
  GI50: 1580 nM
  TGI: 3240 nM
CAKI-1 renal
  GI50: 8310 nM
  TGI: 28600 nM
DU-145 prostate
  GI50: 6230 nM
  TGI: 17400 nM
TK-10 renal
  GI50: 14400 nM
  TGI: 30900 nM
UACC-257 melanoma
  GI50: 8580 nM
  TGI: 25200 nM
NCI-H23 lung
  GI50: 5380 nM
  TGI: 25400 nM
HS 578T breast
  GI50: 4730 nM
  TGI: 27200 nM
EKVX NSCLC
  GI50: 2300 nM
  TGI: 8540 nM
M14 melanoma
  GI50: 1600 nM
  TGI: 3140 nM
BT-549 breast
  GI50: 3390 nM
  TGI: 13300 nM
KM12 colon
  GI50: 12500 nM
  TGI: 37500 nM
OVCAR-4 ovarian
  GI50: 5030 nM
  TGI: 13600 nM
NCI-H522 lung
  GI50: 2560 nM
  TGI: 10200 nM
NCI-H226 lung
  GI50: 4860 nM
  TGI: 26100 nM
UACC-62 melanoma
  GI50: 11400 nM
  TGI: 31700 nM
NCI/ADR-RES ovarian
  GI50: 2700 nM
  TGI: 8210 nM
HCC-2998 colon
  GI50: 3640 nM
  TGI: 10100 nM
SF-295 CNS
  GI50: 2980 nM
  TGI: 8520 nM
OVCAR-3 ovarian
  GI50: 5800 nM
  TGI: 27100 nM
OVCAR-5 ovarian
  GI50: 1860 nM
  TGI: 3850 nM
HL-60(TB) leukemia
  GI50: 1540 nM
  TGI: 3260 nM
HCT-15 colon
  GI50: 1830 nM
  TGI: 3780 nM
SNB-75 CNS
  GI50: 6420 nM
  TGI: 24200 nM
SK-MEL-5 melanoma
  GI50: 3020 nM
  TGI: 8250 nM
RXF 393 renal
  GI50: 3370 nM
  TGI: 9850 nM
NCI-H460 lung
  GI50: 4600 nM
  TGI: 17500 nM
SK-MEL-2 melanoma
  GI50: 5410 nM
  TGI: 14000 nM
SK-OV-3 ovarian
  GI50: 12300 nM
  TGI: 30600 nM
CCRF-CEM leukemia
  GI50: 2060 nM
  TGI: 5400 nM
SK-MEL-28 melanoma
  GI50: 2000 nM
  TGI: 3770 nM
HT29 colon
  GI50: 2410 nM
  TGI: 7310 nM

## CCOC(=O)c1c(NCC(=O)Nc2cccc([N+](=O)[O-])c2)sc2c1CCCC2
LOX IMVI melanoma
  GI50: 195 nM
  TGI: 405 nM
SF-268 CNS
  GI50: 354 nM
  TGI: 1690 nM
K-562 leukemia
  GI50: 278 nM
A549 NSCLC
  GI50: 301 nM
  TGI: 2680 nM
COLO 205 colon
  GI50: 274 nM
  TGI: 774 nM
A498 renal
  GI50: 194 nM
  TGI: 392 nM
SF-539 CNS
  GI50: 242 nM
  TGI: 644 nM
SR leukemia
  GI50: 276 nM
MDA-MB-435
  GI50: 328 nM
  TGI: 1090 nM
UO-31 renal
  GI50: 198 nM
  TGI: 583 nM
PC-3 prostate
  GI50: 250 nM
  TGI: 726 nM
T-47D breast
  GI50: 728 nM
  TGI: 3120 nM
SW-620 colon
  GI50: 315 nM
  TGI: 1210 nM
HCT-116 colon
  GI50: 263 nM
  TGI: 805 nM
MALME-3M melanoma
  GI50: 181 nM
  TGI: 407 nM
ACHN renal
  GI50: 281 nM
  TGI: 795 nM
HOP-62 NSCLC
  GI50: 416 nM
  TGI: 1990 nM
SN12C renal
  GI50: 256 nM
  TGI: 793 nM
IGROV1 ovarian
  GI50: 236 nM
  TGI: 738 nM
786-0 renal
  GI50: 271 nM
  TGI: 840 nM
MCF7 breast
  GI50: 272 nM
  TGI: 974 nM
HOP-92 NSCLC
  GI50: 209 nM
  TGI: 696 nM
OVCAR-8 ovarian
  GI50: 351 nM
  TGI: > 100000 nM
RPMI-8226 leukemia
  GI50: 310 nM
  TGI: 1060 nM
MOLT-4 leukemia
  GI50: 246 nM
  TGI: 4160 nM
U251 CNS
  GI50: 284 nM
  TGI: 979 nM
SNB-19 CNS
  GI50: 306 nM
  TGI: 1080 nM
MDA-MB-231 breast
  GI50: 280 nM
  TGI: 1010 nM
CAKI-1 renal
  GI50: 251 nM
  TGI: 735 nM
DU-145 prostate
  GI50: 316 nM
  TGI: 1360 nM
TK-10 renal
  GI50: 256 nM
  TGI: 782 nM
UACC-257 melanoma
  GI50: 401 nM
  TGI: 2130 nM
NCI-H23 lung
  GI50: 217 nM
  TGI: 722 nM
HS 578T breast
  GI50: 264 nM
  TGI: 773 nM
EKVX NSCLC
  GI50: 718 nM
  TGI: 3640 nM
M14 melanoma
  GI50: 183 nM
  TGI: 361 nM
BT-549 breast
  GI50: 211 nM
  TGI: 605 nM
KM12 colon
  GI50: 315 nM
  TGI: 966 nM
OVCAR-4 ovarian
  GI50: 338 nM
  TGI: 3730 nM
NCI-H522 lung
  GI50: 226 nM
  TGI: 739 nM
NCI-H226 lung
  GI50: 194 nM
  TGI: 471 nM
UACC-62 melanoma
  GI50: 173 nM
  TGI: 380 nM
NCI/ADR-RES ovarian
  GI50: 267 nM
  TGI: 762 nM
HCC-2998 colon
  GI50: 207 nM
  TGI: 499 nM
SF-295 CNS
  GI50: 310 nM
  TGI: 1180 nM
OVCAR-3 ovarian
  GI50: 289 nM
  TGI: 770 nM
OVCAR-5 ovarian
  GI50: 270 nM
  TGI: 779 nM
HL-60(TB) leukemia
  GI50: 280 nM
  TGI: 4200 nM
HCT-15 colon
  GI50: 265 nM
  TGI: 1330 nM
SNB-75 CNS
  GI50: 214 nM
  TGI: 1690 nM
SK-MEL-5 melanoma
  GI50: 182 nM
  TGI: 354 nM
RXF 393 renal
  GI50: 182 nM
  TGI: 360 nM
NCI-H460 lung
  GI50: 265 nM
  TGI: 707 nM
SK-MEL-2 melanoma
  GI50: 436 nM
  TGI: 2290 nM
SK-OV-3 ovarian
  GI50: 294 nM
  TGI: 856 nM
CCRF-CEM leukemia
  GI50: 253 nM
SK-MEL-28 melanoma
  GI50: 235 nM
  TGI: 596 nM
HT29 colon
  GI50: 273 nM
  TGI: 1060 nM
